Experimental findings from US20230321278A1, “AAV VECTOR DELIVERY SYSTEMS” (President and Fellows of Harvard College, priority 2020, published 2023) are described below.

The structures appear in SMILES notation. Entries after “also recorded” stand apart in the source; their conditions may differ.

The test system of one assay is sympathetic nerve. The experiment in a line: Sympathetic nerve ablation by intradermal injection of 6-OHDA. It is filed as in vivo, mice. From the text: The sympathetic nervous system is constantly active at a basal level to maintain body physiology. To explore if basal sympathetic nerve activity affects the other two cell types in this nerve-APM-HFSC tri-lineage unit, the sympathetic nerve in telogen skin was ablated through intradermal injection of 6-hydroxydopamine (6-OHDA, a selective neurotoxin for sympathetic nerves) (Kostrzewa and Jacobowitz, 1974), when HFSCs are quiescent. […] By P30, hair follicles reached full anagen throughout the control back skin, whereas hair follicles in the sympathectomized skin remained mostly in telogen (FIG. 1C). […]
Chemical ablation: 6-Hydroxydopamine hydrobromide (6-OHDA, Sigma 162957) solution was prepared freshly by dissolving 6-OHDA in 0.1% ascorbic acid (in 0.9% sterile NaCl) for intradermal injection. […] Skin was analyzed one week after ablation.
(§1) H&E stained sections were used for analysis. For quantification, anagen II and anagen III were considered as early anagen, anagen IV was mid anagen, and anagen V and anagen VI were full anagen. Hair cycle stages were determined using previously described criteria (Muller-Rover et al., 2001). Ten to twenty hair follicles were individually assessed and staged in each animal, and at least 4 different animals were used per condition. […] The percent of dorsal skin in anagen was quantified using Fiji. […]

For another assay, the system named is HFSCs. Put plainly: Adrenergic agonist topical application, anagen entry. Type of assay: in vivo, mice. As to conditions: 10 mg/kg body weight once a day for 10 days, extended 2nd telogen.
Source text: Next, the impact of elevated sympathetic tone on HFSC activation was explored. Sympathetic nerve terminals secrete the neurotransmitter norepinephrine, which binds to adrenergic receptors on target cells. To elevate the sympathetic tone, isoproterenol, a pan-adrenergic receptor agonist, was topically applied at the extended 2nd telogen. […] Loss of sympathetic nerve innervations makes HFSCs more dormant, whereas elevated sympathetic tone promotes HFSC activation.
as §1, with “The effects of cold exposure and adrenergic agonist treatment (isoproterenol and procaterol) on anagen entry were quantified by monitoring the change of hair regrowth as previously described (Fan et al., 2018; Sheen et al., 2015). The” for “The”

Another assay relates to human HFSCs. Put plainly: Colony formation assay (CFA). The settings on record: 0.1 μM procaterol. Type of assay: cell-based. The procedure: Human hair follicles were isolated from normal scalp tissues. To isolate hair follicle stem cells (HFSCs), hair follicles were dissected, and subcutaneous fat and connective tissues were carefully removed with a scalpel. The lower hair bulb and upper epithelial layer were removed as previously described (Oshima et al., 2001; Rochat et al., 1994). For HFSC isolation, hair follicles were incubated in 1.25 U/mL dispase (Gibco) and 0.5 mg/mL collagenase I (Sigma-Aldrich) solution at 37° C. for 30 minutes, following which the mesenchymal sheath was carefully removed with forceps. To obtain a single cell HFSC suspension, tissue was digested with 0.05% trypsin/EDTA solution (Gibco) for 1 h at 37° C., and cells were filtered through a sterile 40[…] cell strainer (BD Biosciences). Single cell suspensions were then centrifuged at 1300 rpm for 10 minutes and plated on mitomycin C (Cayman) treated J2 feeders at a cell density of 5000 cells/well in a 12-well culture plate (Falcon) in E media supplemented with EGF and additives as described in (Mou et al., 2016; Nowak and Fuchs, 2009). After 48 hours, 0.1 μM procaterol (Sigma) was added (freshly prepared). Medium was changed every 2 days. On day 10, plates were fixed with 4% PFA and stained with Rhodamine B (Sigma). […] CFA quantification was done using Fiji.

On to `NCCc1cc(O)c(O)cc1O` [6-OHDA, 6-hydroxydopamine], for which the “ablation of the sympathetic nerve in skin” value with sympathetic nerve (intradermal injection, telogen skin) is “ablated the sympathetic nerve efficiently”. The “HFSC activation and anagen entry” value in the assay with sympathetic nerve (sympathectomy by intradermal 6-OHDA) was “substantial delay in HFSC activation and anagen entry”. As for `CC(C)NCC(O)c1ccc(O)c(O)c1` (centres unmarked) [isoproterenol], the “anagen entry (back skin hair regrowth)” value in the assay on HFSCs is given as “entered anagen earlier; also recorded: precocious anagen entry”.

With `CCC(NC(C)C)C(O)c1ccc(O)c2[nH]c(=O)ccc12` (centres unmarked) [procaterol], the “anagen entry (back skin hair regrowth)” value in the assay with HFSCs is recorded as “accelerated anagen entry; also recorded: premature anagen entry”. Besides, in the assay on human HFSCs, the “growth of cultured human HFSCs (area covered by colonies)” value was “promoted their growth”.
